From ChEMBL document CHEMBL4184317, “Discovery of Tetrahydroquinoxalines as Bromodomain and Extra-Terminal Domain (BET) Inhibitors with Selectivity for the Second Bromodomain” (J Med Chem, 2018) come the findings set out here.

Tested on in one series: not listed separately
The series can be described thus: physchem. Particulars: buffer, pH 7.4, logD.
Description: Chromatographic hydrophobicity index, log D of the compound at pH 7.4 by HPLC method
One may read the chromatographic logD as a lipophilicity value derived from retention on a column. In turn, `CC(=O)N1c2ccccc2N(Cc2cccc(O)c2)CC1C1CC1` (configuration not stated) displayed a chromatographic logD of 4.9.
Same read-out and setting: in the case of `CC(=O)N1c2ccccc2N(Cc2cccc(C)c2)CC1C` (configuration not stated) it was 6.5.
On the same count and under the same terms, the figure for `CC(=O)N1c2ccccc2N(Cc2ccccc2C#N)CC1C1CC1` (configuration not stated) is 6; for `CCC1CN(Cc2ccccc2)c2cc(-c3cccc(C(N)=O)c3)ccc2N1C(C)=O` (configuration not stated) it is 4.7.
`CCC1CN(Cc2ccccc2)c2cc(-c3cnc(C(N)=O)nc3)ccc2N1C(C)=O` (configuration not stated): the chromatographic logD is 3.6.
On the same count and under the same terms, the figure for `CC(=O)N1c2ccccc2N(Cc2cc(C)ccc2C(=O)O)CC1C1CC1` (configuration not stated) is 2.4.
In turn, `CCC1CN(Cc2ccccc2)c2cc(-c3ccncc3OC)ccc2N1C(C)=O` (configuration not stated) displayed a chromatographic logD of 5.4.
Same read-out and setting: in the case of `CC(=O)N1c2ccc(-c3ccc(C(=O)O)cc3)cc2[C@H](Nc2ccc(Cl)cc2)C[C@@H]1C` it was 3.9.
Still for that read-out and setting: the figure for `CCOC(=O)c1ccccc1CN1CC(C2CC2)N(C(C)=O)c2ccccc21` (configuration not stated) is 7.2.
Consider `CC(=O)N1c2ccccc2N(Cc2ccccc2C(N)=O)CC1C1CC1` (configuration not stated), for which the chromatographic logD came to 3.9.
`CCC1CN(Cc2ccccc2)c2cc(-c3ccc(=O)[nH]c3)ccc2N1C(C)=O` (configuration not stated) showed a chromatographic logD of 3.5.
On the same count and under the same terms, the figure for `CCC1CN(Cc2ccccc2)c2cc(-c3cnoc3)ccc2N1C(C)=O` (configuration not stated) is 5.9; for `CCC1CN(Cc2ccccc2)c2cc(C3=CCOCC3)ccc2N1C(C)=O` (configuration not stated) it is 6.5; for `CCC1CN(Cc2ccccc2)c2ccccc2N1C(C)=O` (configuration not stated) it is 6.5.
Same read-out and setting: the figure for `CC(=O)N1c2ccccc2N(Cc2ccccc2CN)CC1C1CC1` (configuration not stated) is 2.7; for `CC(=O)N1c2ccccc2N(Cc2ccccc2CO)CC1C1CC1` (racemic) it is 4.9.
Turning to `CCC1CN(Cc2ccccc2)c2cc(-c3cccnc3)ccc2N1C(C)=O` (configuration not stated), the chromatographic logD is 5.6.
For `CC(=O)N1CCN(Cc2ccccc2C(=O)O)c2ccccc21`, the chromatographic logD is 1.2.
On the same count and under the same terms, in the case of `CCC1CN(Cc2ccccc2)c2cc(-c3ccc(C(N)=O)cc3)ccc2N1C(C)=O` (configuration not stated) it was 4.4.
Same read-out and setting: in the case of `CCC1CN(Cc2ccccc2)c2cc(-c3cn[nH]c3)ccc2N1C(C)=O` (configuration not stated) it was 4.2.

The target of another series is Bromodomain-containing protein 4 (Homo sapiens, UniProt O60885, Y390A).
Experiment: not given
Details: not given
What is called IC50 is the point on the concentration scale where inhibition reaches its midpoint. Lower therefore signals greater potency. Take `CC(=O)N1c2ccccc2N(Cc2cccc(O)c2)CC1C1CC1` (configuration not stated): the IC50 was 15800 nM.
Turning to `CC(=O)N1c2ccccc2N(Cc2cccc(C)c2)CC1C` (configuration not stated), half-maximal inhibition (IC50) required 20000 nM. The IC50 values of the last two compounds are within 1.5-fold of each other.
For the compound `CC(=O)N1c2ccccc2N(Cc2ccccc2C#N)CC1C1CC1` (configuration not stated), the IC50 is 25100 nM. This IC50 and that of the compound before are within 1.5-fold of each other.
`CCC1CN(Cc2ccccc2)c2cc(-c3cccc(C(N)=O)c3)ccc2N1C(C)=O` (configuration not stated) showed an IC50 of 501 nM.
In the case of `CCC1CN(Cc2ccccc2)c2cc(-c3cnc(C(N)=O)nc3)ccc2N1C(C)=O` (configuration not stated), the IC50 was 2000 nM.
Still for that read-out and setting: in the case of `CC(=O)N1c2ccccc2N(Cc2cc(C)ccc2C(=O)O)CC1C1CC1` (configuration not stated) it was over 50100 nM; in that of `CC(=O)N1c2ccccc2N(Cc2ccccc2CO)CC1C1CC1` (single isomer, unassigned; enantiomer 2), over 50100 nM.
On the same count and under the same terms, the figure for `CCC1CN(Cc2ccccc2)c2cc(-c3ccncc3OC)ccc2N1C(C)=O` (configuration not stated) is 5010 nM; for `CCOC(=O)c1ccccc1CN1CC(C2CC2)N(C(C)=O)c2ccccc21` (configuration not stated) it is 12600 nM; for `CC(=O)N1c2ccccc2N(Cc2ccccc2C(N)=O)CC1C1CC1` (configuration not stated) it is over 50100 nM.
Same read-out and setting: the figure for `CCC1CN(Cc2ccccc2)c2cc(-c3ccc(=O)[nH]c3)ccc2N1C(C)=O` (configuration not stated) is 794 nM; for `CCC1CN(Cc2ccccc2)c2cc(-c3cnoc3)ccc2N1C(C)=O` (configuration not stated) it is 1580 nM.
Compound `CCC1CN(Cc2ccccc2)c2cc(C3=CCOCC3)ccc2N1C(C)=O` (configuration not stated) gave an IC50 of 1580 nM.
Still for that read-out and setting: the figure for `CCC1CN(Cc2ccccc2)c2ccccc2N1C(C)=O` (configuration not stated) is 10000 nM; for `CC(=O)N1CC(C)N(Cc2ccccc2)c2ccccc21` (configuration not stated) it is 31600 nM; for `CC(=O)N1c2ccccc2N(Cc2ccccc2CN)CC1C1CC1` (configuration not stated) it is 20000 nM.
With `CC(=O)N1c2ccccc2N(Cc2ccccc2CO)CC1C1CC1` (racemic), it took 31600 nM to reach half-maximal inhibition (IC50).
Same read-out and setting: the figure for `CCC1CN(Cc2ccccc2)c2cc(-c3cccnc3)ccc2N1C(C)=O` (configuration not stated) is 1580 nM.
Still for that read-out and setting: in the case of `CC(=O)N1CCN(Cc2ccccc2C(=O)O)c2ccccc21` it was over 50100 nM; in that of `CCC1CN(Cc2ccccc2)c2cc(-c3ccc(C(N)=O)cc3)ccc2N1C(C)=O` (configuration not stated), 398 nM.
Still for that read-out and setting: in the case of `CCC1CN(Cc2ccccc2)c2cc(-c3cn[nH]c3)ccc2N1C(C)=O` (configuration not stated) it was 398 nM.

In the next series the target is Bromodomain-containing protein 4 (Homo sapiens, UniProt O60885, Y97A).
Experiment: not given
Details: not given
Compound `CC(=O)N1c2ccccc2N(Cc2cccc(O)c2)CC1C1CC1` (configuration not stated) showed an IC50 of 631 nM.
The same measure, in the same setting: in the case of `CC(=O)N1c2ccccc2N(Cc2cccc(C)c2)CC1C` (configuration not stated) it was 1000 nM.
On the same count and under the same terms, in the case of `CC(=O)N1c2ccccc2N(Cc2ccccc2C#N)CC1C1CC1` (configuration not stated) it was 2510 nM; in that of `CCC1CN(Cc2ccccc2)c2cc(-c3cccc(C(N)=O)c3)ccc2N1C(C)=O` (configuration not stated), 63.1 nM; in that of `CCC1CN(Cc2ccccc2)c2cc(-c3cnc(C(N)=O)nc3)ccc2N1C(C)=O` (configuration not stated), 100 nM.
Still for that read-out and setting: in the case of `CC(=O)N1c2ccccc2N(Cc2cc(C)ccc2C(=O)O)CC1C1CC1` (configuration not stated) it was 2510 nM.
For `CC(=O)N1c2ccccc2N(Cc2ccccc2CO)CC1C1CC1` (single isomer, unassigned; enantiomer 2), the half-maximal inhibitory concentration (IC50) was over 50100 nM.
In the case of `CCC1CN(Cc2ccccc2)c2cc(-c3ccncc3OC)ccc2N1C(C)=O` (configuration not stated), inhibition was half-maximal at 501 nM (IC50).
The same measure, in the same setting: in the case of `CCOC(=O)c1ccccc1CN1CC(C2CC2)N(C(C)=O)c2ccccc21` (configuration not stated) it was 1000 nM; in that of `CC(=O)N1c2ccccc2N(Cc2ccccc2C(N)=O)CC1C1CC1` (configuration not stated), 1260 nM; in that of `CCC1CN(Cc2ccccc2)c2cc(-c3ccc(=O)[nH]c3)ccc2N1C(C)=O` (configuration not stated), 79.4 nM.
Same read-out and setting: the figure for `CCC1CN(Cc2ccccc2)c2cc(-c3cnoc3)ccc2N1C(C)=O` (configuration not stated) is 126 nM; for `CCC1CN(Cc2ccccc2)c2cc(C3=CCOCC3)ccc2N1C(C)=O` (configuration not stated) it is 158 nM; for `CCC1CN(Cc2ccccc2)c2ccccc2N1C(C)=O` (configuration not stated) it is 631 nM.
The same measure, in the same setting: the figure for `CC(=O)N1CC(C)N(Cc2ccccc2)c2ccccc21` (configuration not stated) is 1260 nM; for `CC(=O)N1c2ccccc2N(Cc2ccccc2CN)CC1C1CC1` (configuration not stated) it is 631 nM; for `CC(=O)N1c2ccccc2N(Cc2ccccc2CO)CC1C1CC1` (racemic) it is 501 nM.
`CCC1CN(Cc2ccccc2)c2cc(-c3cccnc3)ccc2N1C(C)=O` (configuration not stated): half-maximal inhibition (IC50) was put at 100 nM. Compared with the last compound, the IC50 is about 5-fold lower.
Still for that read-out and setting: in the case of `CC(=O)N1CCN(Cc2ccccc2C(=O)O)c2ccccc21` it was 5010 nM; in that of `CCC1CN(Cc2ccccc2)c2cc(-c3ccc(C(N)=O)cc3)ccc2N1C(C)=O` (configuration not stated), 50.1 nM; in that of `CCC1CN(Cc2ccccc2)c2cc(-c3cn[nH]c3)ccc2N1C(C)=O` (configuration not stated), 50.1 nM.
